The text below walks through data of patent US20090304692A1, “TRIAZINE COMPOUNDS AS PI3 KINASE AND MTOR INHIBITORS” (Wyeth, priority 2008, published 2009).

Structures are written as SMILES. Like-named read-outs stand apart in the source and are kept apart here. Some results are limits rather than exact numbers.

For assay [1], the target named is PI3K-γ (Homo sapiens, UniProt P48736). Nature of the assay: PI3K-gamma fluorescence polarization assay. For orientation: Fluorescence polarisation rises when a labelled molecule tumbles more slowly, as on binding a larger partner.
Assay [2] addresses PI3K-α (Homo sapiens, UniProt P42336). Nature of the assay: PI3K-alpha fluorescence polarization assay. To be noted: read-out: IC50 PI3Kα.

PI3K-γ, sequence (P48736 whole entry, species assumed): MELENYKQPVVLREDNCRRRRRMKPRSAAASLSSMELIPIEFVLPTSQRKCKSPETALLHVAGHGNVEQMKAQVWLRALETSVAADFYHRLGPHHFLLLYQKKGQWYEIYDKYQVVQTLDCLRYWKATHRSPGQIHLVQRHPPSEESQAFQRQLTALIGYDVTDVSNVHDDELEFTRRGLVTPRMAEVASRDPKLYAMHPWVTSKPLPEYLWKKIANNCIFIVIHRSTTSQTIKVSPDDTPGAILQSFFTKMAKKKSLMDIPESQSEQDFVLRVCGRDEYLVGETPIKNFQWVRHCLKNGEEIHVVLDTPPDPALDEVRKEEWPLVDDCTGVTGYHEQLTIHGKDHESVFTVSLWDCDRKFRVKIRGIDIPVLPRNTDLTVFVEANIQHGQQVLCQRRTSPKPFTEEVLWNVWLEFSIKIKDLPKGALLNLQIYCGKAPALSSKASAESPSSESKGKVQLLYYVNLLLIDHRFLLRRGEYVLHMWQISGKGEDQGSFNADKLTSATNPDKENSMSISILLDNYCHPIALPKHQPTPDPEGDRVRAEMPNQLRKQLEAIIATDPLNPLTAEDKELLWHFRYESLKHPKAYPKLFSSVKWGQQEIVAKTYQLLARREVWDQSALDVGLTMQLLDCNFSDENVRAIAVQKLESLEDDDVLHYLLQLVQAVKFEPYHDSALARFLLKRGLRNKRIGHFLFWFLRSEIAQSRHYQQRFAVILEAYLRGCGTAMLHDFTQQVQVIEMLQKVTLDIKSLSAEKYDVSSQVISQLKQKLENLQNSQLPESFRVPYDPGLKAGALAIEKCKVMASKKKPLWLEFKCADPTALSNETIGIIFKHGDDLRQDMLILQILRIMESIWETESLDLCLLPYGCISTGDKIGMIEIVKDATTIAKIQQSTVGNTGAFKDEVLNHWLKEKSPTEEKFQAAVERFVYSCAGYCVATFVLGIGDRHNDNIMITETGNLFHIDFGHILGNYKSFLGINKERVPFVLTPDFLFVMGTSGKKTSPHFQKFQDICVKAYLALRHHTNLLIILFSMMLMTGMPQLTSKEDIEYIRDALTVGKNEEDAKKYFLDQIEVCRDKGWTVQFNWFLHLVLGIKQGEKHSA
PI3K-α, sequence (P42336 whole entry, species assumed): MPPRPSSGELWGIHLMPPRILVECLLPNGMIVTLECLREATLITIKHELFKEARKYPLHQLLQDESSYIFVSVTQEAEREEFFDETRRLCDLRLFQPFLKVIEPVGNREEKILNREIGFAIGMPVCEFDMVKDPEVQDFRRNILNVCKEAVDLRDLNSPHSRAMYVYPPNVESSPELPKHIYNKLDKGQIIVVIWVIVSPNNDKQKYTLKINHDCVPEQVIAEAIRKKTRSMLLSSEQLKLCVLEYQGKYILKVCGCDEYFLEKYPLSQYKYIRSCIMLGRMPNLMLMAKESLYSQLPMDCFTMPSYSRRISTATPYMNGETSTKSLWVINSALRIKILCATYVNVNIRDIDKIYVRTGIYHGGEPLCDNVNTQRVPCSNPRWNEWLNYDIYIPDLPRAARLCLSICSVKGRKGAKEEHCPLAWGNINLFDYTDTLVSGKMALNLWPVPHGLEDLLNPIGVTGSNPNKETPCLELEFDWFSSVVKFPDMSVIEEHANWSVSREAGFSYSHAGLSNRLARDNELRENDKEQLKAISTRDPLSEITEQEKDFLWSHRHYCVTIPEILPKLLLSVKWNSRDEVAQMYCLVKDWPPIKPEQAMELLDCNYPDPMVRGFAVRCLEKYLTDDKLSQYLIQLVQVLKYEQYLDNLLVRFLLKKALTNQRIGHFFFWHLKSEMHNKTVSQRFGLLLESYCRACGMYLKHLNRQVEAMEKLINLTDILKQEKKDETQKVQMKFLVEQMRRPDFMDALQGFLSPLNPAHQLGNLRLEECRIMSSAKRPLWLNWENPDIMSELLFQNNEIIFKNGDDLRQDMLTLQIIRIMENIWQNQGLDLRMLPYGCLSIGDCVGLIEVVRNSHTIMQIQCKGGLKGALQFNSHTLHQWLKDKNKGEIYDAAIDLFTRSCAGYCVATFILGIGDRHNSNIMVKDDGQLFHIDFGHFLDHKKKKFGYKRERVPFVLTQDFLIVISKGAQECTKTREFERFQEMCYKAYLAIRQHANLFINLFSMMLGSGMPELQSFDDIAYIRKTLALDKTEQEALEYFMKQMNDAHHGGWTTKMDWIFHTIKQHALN
PI3K-α, sequence (P27986 whole entry partner, species assumed): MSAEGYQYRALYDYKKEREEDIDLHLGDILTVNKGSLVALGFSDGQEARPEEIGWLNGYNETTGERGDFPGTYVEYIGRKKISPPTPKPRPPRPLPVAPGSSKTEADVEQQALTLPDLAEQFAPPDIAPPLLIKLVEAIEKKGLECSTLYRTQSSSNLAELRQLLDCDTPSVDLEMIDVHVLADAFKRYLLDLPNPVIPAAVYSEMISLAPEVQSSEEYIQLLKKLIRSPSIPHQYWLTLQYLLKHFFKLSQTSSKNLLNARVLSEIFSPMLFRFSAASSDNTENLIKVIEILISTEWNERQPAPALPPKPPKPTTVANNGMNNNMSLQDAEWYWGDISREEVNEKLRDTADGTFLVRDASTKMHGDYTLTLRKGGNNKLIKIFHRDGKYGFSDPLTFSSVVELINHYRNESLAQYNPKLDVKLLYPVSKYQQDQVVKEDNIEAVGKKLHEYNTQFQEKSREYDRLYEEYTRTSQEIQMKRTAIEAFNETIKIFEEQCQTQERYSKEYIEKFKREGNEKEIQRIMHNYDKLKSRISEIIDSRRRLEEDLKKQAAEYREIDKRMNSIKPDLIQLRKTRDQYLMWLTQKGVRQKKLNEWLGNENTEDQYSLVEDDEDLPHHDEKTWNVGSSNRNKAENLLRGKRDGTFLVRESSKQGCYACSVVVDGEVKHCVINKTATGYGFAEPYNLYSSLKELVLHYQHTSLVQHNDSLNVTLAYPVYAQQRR

Broadly, the IC50 is the concentration needed to halve the response being measured. With `Cc1nc(-c2ccc(NC(=O)Nc3ccc(C(=O)NC4CCN(C)CC4)cc3)cc2)nc(N2CCOCC2)n1` [Example 164, 4-({[4-(4-methyl-6-morpholin-4-yl-1,3,5-triazin-2-yl)phenyl]carbamoyl}amino)-N-(1-methylpiperidin-4-yl)benzamide], the IC50 in assay [1] (read-out: IC50 PI3Kγ) was determined as 1380 nM; in assay [2] it was 378 nM. On to `O=C(Nc1ccc(C(=O)N2CCC(N3CCCC3)CC2)cc1)Nc1ccc(-c2nc(N3CCOCC3)nc(N3C[C@@H]4C[C@H]3CO4)n2)cc1` [Example 210, 1-(4-{4-morpholin-4-yl-6-[(1S,4S)-2-oxa-5-azabicyclo[2.2.1]hept-5-yl]-1,3,5-triazin-2-yl}phenyl)-3-{4-[(4-pyrrolidin-1-ylpiperidin-1-yl)carbonyl]phenyl}urea], for which the IC50 stood at 31 nM in assay [1] (read-out: IC50 PI3Kγ) and 6 nM in assay [2]. Consider `O=C(Nc1ccc(CO)cc1)Nc1ccc(-c2nc(N3C4CCC3COC4)nc(N3C4CCC3COC4)n2)cc1` [Example 287, 1-[4-(4,6-di-3-oxa-8-azabicyclo[3.2.1]oct-8-yl-1,3,5-triazin-2-yl)phenyl]-3-[4-(hydroxymethyl)phenyl]urea], for which the IC50 in assay [1] (read-out: IC50 PI3Kγ) is 3300 nM. The same measure, in the same setting: to `CNCc1ccc(NC(=O)Nc2ccc(-c3nc(N4C5CCC4COC5)nc(N4C5CCC4COC5)n3)cc2)cc1` [Example 288, 1-[4-(4,6-di-3-oxa-8-azabicyclo[3.2.1]oct-8-yl-1,3,5-triazin-2-yl)phenyl]-3-{4-[(methylamino)methyl]phenyl}urea] belongs 2780 nM. Turning to `CN(C)CCOc1ccc(NC(=O)Nc2ccc(-c3nc(N4C5CCC4COC5)nc(N4C5CCC4COC5)n3)cc2)cc1` [Example 289, 1-{4-[2-(dimethylamino)ethoxy]phenyl}-3-[4-(4,6-di-3-oxa-8-azabicyclo[3.2.1]oct-8-yl-1,3,5-triazin-2-yl)phenyl]urea], in assay [1] (read-out: IC50 PI3Kγ), the IC50 worked out at 3880 nM. Turning to `CN1CCN(c2ccc(NC(=O)Nc3ccc(-c4nc(N5C[C@@H]6C[C@H]5CO6)nc(N5C[C@@H]6C[C@H]5CO6)n4)cc3)cc2)CC1` [Example 312, 1-{4-[4,6-di-(1S,4S)-2-oxa-5-azabicyclo[2.2.1]hept-5-yl-1,3,5-triazin-2-yl]phenyl}-3-[4-(4-methylpiperazin-1-yl)phenyl]urea], the IC50 in assay [1] (read-out: IC50 PI3Kγ) was found to be 10000 nM; in assay [2], 3440 nM.

In the case of `O=C(Nc1ccc(OCCO)cc1)Nc1ccc(-c2nc(N3C4CCC3COC4)nc(N3C4CCC3COC4)n2)cc1` [Example 372, 1-(4-(4,6-di(3-oxa-8-azabicyclo[3.2.1]octan-8-yl)-1,3,5-triazin-2-yl)phenyl)-3-(4-(2-hydroxyethoxy)phenyl)urea], the IC50 in assay [1] (read-out: IC50 PI3Kγ) came out at 7240 nM. On to `CC(C)Nc1nc(-c2ccc(NC(=O)Nc3ccc(N4CCN(C)CC4)cc3)cc2)nc(N2C3CCC2COC3)n1` [Example 378, 1-(4-(4-(3-oxa-8-azabicyclo[3.2.1]octan-8-yl)-6-(isopropylamino)-1,3,5-triazin-2-yl)phenyl)-3-(4-(4-methylpiperazin-1-yl)phenyl)urea], for which the IC50 in assay [1] (read-out: IC50 PI3Kγ) was found to be 5380 nM.

As for `CC(C)N(C)c1nc(-c2ccc(NC(=O)Nc3ccc(N4CCN(C)CC4)cc3)cc2)nc(N2C3CCC2COC3)n1` [Example 389, 1-(4-(4-(3-oxa-8-azabicyclo[3.2.1]octan-8-yl)-6-(isopropyl(methyl)amino)-1,3,5-triazin-2-yl)phenyl)-3-(4-(4-methylpiperazin-1-yl)phenyl)urea], the IC50 in assay [1] (read-out: IC50 PI3Kγ) was 5660 nM. Still for that read-out and setting: the value for `CN1CCN(c2ccc(NC(=O)Nc3ccc(-c4nc(N5CCSCC5)nc(N5C6CCC5COC6)n4)cc3)cc2)CC1` [Example 394, 1-(4-(4-(3-oxa-8-azabicyclo[3.2.1]octan-8-yl)-6-thiomorpholino-1,3,5-triazin-2-yl)phenyl)-3-(4-(4-methylpiperazin-1-yl)phenyl)urea] was 3230 nM; that for `CN1CCN(c2ccc(NC(=O)Nc3ccc(-c4nc(C5=CCOCC5)nc(N5C6CCC5COC6)n4)cc3)cc2)CC1` [Example 405, 1-(4-(4-(3-oxa-8-azabicyclo[3.2.1]octan-8-yl)-6-(3,6-dihydro-2H-pyran-4-yl)-1,3,5-triazin-2-yl)phenyl)-3-(4-(4-methylpiperazin-1-yl)phenyl)urea] was 193 nM. Still for that read-out and setting: to `CN1CCN(c2ccc(NC(=O)Nc3ccc(-c4nc(C5CCOCC5)nc(N5C6CCC5COC6)n4)cc3)cc2)CC1` [Example 407, 1-(4-(4-(3-oxa-8-azabicyclo[3.2.1]octan-8-yl)-6-(tetrahydro-2H-pyran-4-yl)-1,3,5-triazin-2-yl)phenyl)-3-(4-(4-methylpiperazin-1-yl)phenyl)urea] belongs 2260 nM; to `C[C@@H]1COCCN1c1nc(-c2ccc(NC(=O)Nc3ccc(OCCN(C)C)cc3)cc2)nc(N2C3CCC2COC3)n1` [Example 419, 1-(4-(4-(3-oxa-8-azabicyclo[3.2.1]octan-8-yl)-6-((R)-3-methylmorpholino)-1,3,5-triazin-2-yl)phenyl)-3-(4-(2-(dimethylamino)ethoxy)phenyl)urea], 4270 nM. With `C[C@@H]1COCCN1c1nc(-c2ccc(NC(=O)Nc3ccc(N4CCN(C)CC4)nc3)cc2)nc(C2CCOCC2)n1` [Example 433, (R)-1-(4-(4-(3-methylmorpholino)-6-(tetrahydro-2H-pyran-4-yl)-1,3,5-triazin-2-yl)phenyl)-3-(6-(4-methylpiperazin-1-yl)pyridin-3-yl)urea], the IC50 was found to be 1510 nM in assay [1] (read-out: IC50 PI3Kγ) and 220 nM in assay [2]. `CCN1CCN(c2ccc(NC(=O)Nc3ccc(-c4nc(C5CCOCC5)nc(N5C6CCC5COC6)n4)cc3)cc2)CC1` [Example 434, 1-(4-(4-(3-oxa-8-azabicyclo[3.2.1]octan-8-yl)-6-(tetrahydro-2H-pyran-4-yl)-1,3,5-triazin-2-yl)phenyl)-3-(4-(4-ethylpiperazin-1-yl)phenyl)urea]: the IC50 in assay [1] (read-out: IC50 PI3Kγ) was 4740 nM. As to `CN(C)C1CCN(c2ccc(NC(=O)Nc3ccc(-c4nc(C5CCOCC5)nc(N5C6CCC5COC6)n4)cc3)cc2)CC1` [Example 437, 1-(4-(4-(3-oxa-8-azabicyclo[3.2.1]octan-8-yl)-6-(tetrahydro-2H-pyran-4-yl)-1,3,5-triazin-2-yl)phenyl)-3-(4-(4-(dimethylamino)piperidin-1-yl)phenyl)urea], in assay [1] (read-out: IC50 PI3Kγ), the IC50 was 1610 nM.

Take `CN1CCN(C(=O)c2ccc(NC(=O)Nc3ccc(-c4nc(C5CCOCC5)nc(N5C6CCC5COC6)n4)cc3)cc2)CC1` [Example 438, 1-(4-(4-(3-oxa-8-azabicyclo[3.2.1]octan-8-yl)-6-(tetrahydro-2H-pyran-4-yl)-1,3,5-triazin-2-yl)phenyl)-3-(4-(4-methylpiperazine-1-carbonyl)phenyl)urea]: the IC50 in assay [1] (read-out: IC50 PI3Kγ) is 663 nM. As to `CCN1CCN(c2ccc(NC(=O)Nc3ccc(-c4nc(N5C6CCC5COC6)nc(N5CCOC[C@H]5C)n4)cc3)cc2)CC1` [Example 440, 1-(4-(4-(3-oxa-8-azabicyclo[3.2.1]octan-8-yl)-6-((R)-3-methylmorpholino)-1,3,5-triazin-2-yl)phenyl)-3-(4-(4-ethylpiperazin-1-yl)phenyl)urea], the IC50 in assay [1] was > 10000 nM. Still for that read-out and setting: to `CC(C)N1CCN(c2ccc(NC(=O)Nc3ccc(-c4nc(N5C6CCC5COC6)nc(N5CCOC[C@H]5C)n4)cc3)cc2)CC1` [Example 441, 1-(4-(4-(3-oxa-8-azabicyclo[3.2.1]octan-8-yl)-6-((R)-3-methylmorpholino)-1,3,5-triazin-2-yl)phenyl)-3-(4-(4-isopropylpiperazin-1-yl)phenyl)urea] belongs > 10000 nM.

With `C[C@@H]1COCCN1c1nc(-c2ccc(NC(=O)Nc3ccc(C(=O)N4CCN(C)CC4)cc3)cc2)nc(N2C3CCC2COC3)n1` [Example 444, 1-(4-(4-(3-oxa-8-azabicyclo[3.2.1]octan-8-yl)-6-((R)-3-methylmorpholino)-1,3,5-triazin-2-yl)phenyl)-3-(4-(4-methylpiperazine-1-carbonyl)phenyl)urea], in assay [1] (read-out: IC50 PI3Kγ), the 50% inhibitory concentration (IC50) was determined as 1100 nM.

For the compound `CC(C)N1CCN(C(=O)c2ccc(NC(=O)Nc3ccc(-c4nc(N5C6CCC5COC6)nc(N5CCOC[C@H]5C)n4)cc3)cc2)CC1` [Example 445, 1-(4-(4-(3-oxa-8-azabicyclo[3.2.1]octan-8-yl)-6-((R)-3-methylmorpholino)-1,3,5-triazin-2-yl)phenyl)-3-(4-(4-isopropylpiperazine-1-carbonyl)phenyl)urea], the IC50 in assay [1] (read-out: IC50 PI3Kγ) is 1000 nM. For `CN(C)[C@H]1CCN(C(=O)c2ccc(NC(=O)Nc3ccc(-c4nc(N5CCOCC5)nc(N5C6CCC5COC6)n4)cc3)cc2)C1` [Example 516, 1-(4-{[(3S)-3-(dimethylamino)pyrrolidin-1-yl]carbonyl}phenyl)-3-{4-[4-morpholin-4-yl-6-(3-oxa-8-azabicyclo[3.2.1]oct-8-yl)-1,3,5-triazin-2-yl]phenyl}urea], the IC50 in assay [1] (read-out: IC50 PI3Kγ) was found to be 17 nM; in assay [2] it was 2.1 nM; in assay [2] (listed as 824), 2 nM; in assay [2] (listed as 827), 2.15 nM. As to `Cc1ccc(-c2nc(-c3ccc(NC(=O)Nc4cccc(C(=O)O)c4)cc3)nc(N3CCOCC3)n2)cc1` [Example 577, 3-[({4-[4-(4-methylphenyl)-6-morpholin-4-yl-1,3,5-triazin-2-yl]phenyl}carbamoyl)amino]benzoic acid], the results for the half-inhibitory concentration (IC50) in assay [1] (read-out: IC50 PI3Kγ) and in assay [2] were 104 nM and 63 nM, respectively. Turning to `CC(C)N1CCN(C(=O)c2ccc(NC(=O)Nc3ccc(-c4nc(N5C6CCC5COC6)nc(N5CCOC[C@@H]5C)n4)cc3)cc2)CC1` [Example 830, 1-(4-{4-[(3S)-3-methylmorpholin-4-yl]-6-(3-oxa-8-azabicyclo[3.2.1]oct-8-yl)-1,3,5-triazin-2-yl}phenyl)-3-(4-{[4-(propan-2-yl)piperazin-1-yl]carbonyl}phenyl)urea], the IC50 in assay [1] (read-out: IC50 PI3Kγ) was 70.5 nM. On the same count and under the same terms, to `C[C@H]1COCCN1c1nc(-c2ccc(NC(=O)Nc3ccc(C(=O)N4CCN(C)CC4)cc3)cc2)nc(N2C3CCC2COC3)n1` [Example 835, 1-(4-{4-[(3S)-3-methylmorpholin-4-yl]-6-(3-oxa-8-azabicyclo[3.2.1]oct-8-yl)-1,3,5-triazin-2-yl}phenyl)-3-{4-[(4-methylpiperazin-1-yl)carbonyl]phenyl}urea] belongs 66 nM.
